Assay results from EP0752872B1, “NADH OXIDASE AS A TARGET IN DIAGNOSIS AND THERAPY” (Morré, D. James, priority 1994, dated 1995).

How the values were obtained:
[1] = test system: plasma membrane NADH oxidase; test: Spectrophotometric NADH oxidase assay, rat liver plasma membranes (normal cells); format: biochemical
Method: Purification of plasma membranes from rat liver. A 5000 x g pellet from the preparation of Golgi apparatus (Morré (1971) Meth. Enzymol. 22, 130-148) was the starting material. The fluffy layer which contains the Golgi apparatus fraction was mixed, withdrawn and excluded from the plasma membrane preparations. Cold 1 mM NaHCO3 (5 ml) was added to each tube and the friable yellow-brown upper part of the pellet was resuspended with a pen-brush, leaving the reddish tightly packed bottom part of the pellet undisturbed. The resuspended material was homogenized in aliquots of 5 ml each in a 30 ml stainless steel homogenizer (Duragrind) 20 times by hand. The homogenates were combined, diluted with cold 1 mM NaHCO3 (1:1 dilution), and centrifuged at 6000 x g in a HB rotor for 15 min. The supernatant was discarded and the pellet was used for the two-phase separation (Morré & Morré (1989) BioTechniques 7:946-958).
The two-phase system contained 6.4% (w/w) Dextran T-500 (Pharmacia), 6.4% (w/w) polyethylene glycol) 3350 (Fisher), and 5 mM potassium phosphate buffer (pH 7.2) (Morré & Morré, 1989, supra). The homogenate (1 g) was added to the two-phase system and the weight of the system was brought to 8 g with distilled water. The tubes were inverted vigorously for 40 times in the cold (4°C). The phases were separated by centrifugation at 750 rpm (150 x g) in a Sorvall HB 4 rotor for 5 min. The upper phases were carefully withdrawn with a pasteur pipette, divided in half and transferred into 40 ml plastic centrifuge tubes and diluted with cold 1 mM NaHCO3. The purified plasma membranes were collected by centrifugation at 10,000 x g in a HB rotor for 30 min. Plasma membrane pellets were resuspended in 50 mM Tris-Mes buffer (pH 7.2) and stored at -70°C. Proteins were determined using the bicinchoninic acid (BCA) assay (Smith et al. (1985) Anal. Biochem. […]: 76-85) with bovine serum albumin as standard.
(§1) Spectrophometric assay of NADH oxidase. NADH oxidase activity was determined as the disappearance of NADH measured at 340 nm in a reaction mixture containing 25 mM Tris-MES buffer (pH 7.2), 1 mM KCN to inhibit the low levels of contaminating mitochondrial oxidase activity, and 150 µM NADH at 37°C with constant stirring. Activity was measured using a Hitachi U3210 spectrophotometer with continuous recording over two intervals of 5 min each. A millimolar extinction coefficient of 6.22 was used to determine specific activity.

[2] = test system: circulating NADH oxidase in the serum; test: NADH oxidase activity of human serum; format: biochemical
Method: as §1

COc1cc(CNC(=O)CCCC/C=C/C(C)C)ccc1O [capsaicin]
effect on NADH oxidase activity (in words) [1]: no effect | NADH oxidase activities of human serum, Mean [2]: 0.56 | Ratio, Mean [2]: 0.97
